From patent US20200377863A1, “MODEL SYSTEM OF LIVER FIBROSIS AND METHOD OF MAKING AND USING THE SAME” (Wake Forest University Health Sciences, priority 2017, published 2020)

Experiments:
EZH2 [1] = target: T1, EZH2 (Homo sapiens, UniProt Q15910); assay: Western blot and densitometry of EZH2 activity marker H3K27me3 in fibroblasts treated with GSK-126; format: cell-based
T1 construct: endogenous in cells; host or cells: myofibroblasts transitioned from mesenchymal stem cells (called tumor-associated fibroblasts, TAF)
T1 sequence (Q15910 whole entry, species assumed): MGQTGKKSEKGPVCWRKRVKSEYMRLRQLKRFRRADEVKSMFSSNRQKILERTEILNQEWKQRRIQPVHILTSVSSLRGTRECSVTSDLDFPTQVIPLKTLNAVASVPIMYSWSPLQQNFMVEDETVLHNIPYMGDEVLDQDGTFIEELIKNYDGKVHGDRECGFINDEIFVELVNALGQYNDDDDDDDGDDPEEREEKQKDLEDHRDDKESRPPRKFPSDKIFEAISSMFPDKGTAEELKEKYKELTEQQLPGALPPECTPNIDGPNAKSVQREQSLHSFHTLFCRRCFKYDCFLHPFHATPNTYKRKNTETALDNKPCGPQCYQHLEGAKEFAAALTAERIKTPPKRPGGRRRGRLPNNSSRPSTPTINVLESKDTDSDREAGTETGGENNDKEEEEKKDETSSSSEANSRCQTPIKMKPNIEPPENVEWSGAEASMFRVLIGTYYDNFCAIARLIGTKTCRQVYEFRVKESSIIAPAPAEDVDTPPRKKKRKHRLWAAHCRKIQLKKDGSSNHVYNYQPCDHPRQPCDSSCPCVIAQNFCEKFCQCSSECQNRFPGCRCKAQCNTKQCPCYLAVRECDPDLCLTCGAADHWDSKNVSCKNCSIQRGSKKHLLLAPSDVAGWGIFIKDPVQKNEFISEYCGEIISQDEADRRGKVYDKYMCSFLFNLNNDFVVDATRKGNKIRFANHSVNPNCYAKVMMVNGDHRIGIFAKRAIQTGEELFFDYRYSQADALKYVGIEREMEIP
T1 sequence (Q15022 whole entry partner, species assumed): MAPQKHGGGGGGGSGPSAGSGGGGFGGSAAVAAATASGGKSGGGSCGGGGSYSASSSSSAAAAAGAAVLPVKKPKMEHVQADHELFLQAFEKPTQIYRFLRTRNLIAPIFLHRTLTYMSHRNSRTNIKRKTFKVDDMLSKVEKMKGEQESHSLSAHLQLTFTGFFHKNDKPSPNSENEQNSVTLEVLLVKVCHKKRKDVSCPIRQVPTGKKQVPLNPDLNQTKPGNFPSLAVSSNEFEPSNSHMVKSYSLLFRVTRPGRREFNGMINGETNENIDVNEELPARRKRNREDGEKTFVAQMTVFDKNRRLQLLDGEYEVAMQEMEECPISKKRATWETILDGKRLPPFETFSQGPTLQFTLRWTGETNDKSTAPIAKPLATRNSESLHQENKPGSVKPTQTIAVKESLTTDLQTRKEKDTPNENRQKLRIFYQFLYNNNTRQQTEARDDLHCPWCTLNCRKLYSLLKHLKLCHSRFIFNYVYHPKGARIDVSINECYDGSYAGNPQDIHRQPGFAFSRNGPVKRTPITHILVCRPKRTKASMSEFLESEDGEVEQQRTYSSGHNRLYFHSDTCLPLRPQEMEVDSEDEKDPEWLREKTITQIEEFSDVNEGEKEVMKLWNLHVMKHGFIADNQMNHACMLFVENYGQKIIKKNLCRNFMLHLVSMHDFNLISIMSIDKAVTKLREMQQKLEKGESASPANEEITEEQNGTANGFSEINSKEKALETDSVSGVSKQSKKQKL
T1 sequence (O75530 whole entry partner, species assumed): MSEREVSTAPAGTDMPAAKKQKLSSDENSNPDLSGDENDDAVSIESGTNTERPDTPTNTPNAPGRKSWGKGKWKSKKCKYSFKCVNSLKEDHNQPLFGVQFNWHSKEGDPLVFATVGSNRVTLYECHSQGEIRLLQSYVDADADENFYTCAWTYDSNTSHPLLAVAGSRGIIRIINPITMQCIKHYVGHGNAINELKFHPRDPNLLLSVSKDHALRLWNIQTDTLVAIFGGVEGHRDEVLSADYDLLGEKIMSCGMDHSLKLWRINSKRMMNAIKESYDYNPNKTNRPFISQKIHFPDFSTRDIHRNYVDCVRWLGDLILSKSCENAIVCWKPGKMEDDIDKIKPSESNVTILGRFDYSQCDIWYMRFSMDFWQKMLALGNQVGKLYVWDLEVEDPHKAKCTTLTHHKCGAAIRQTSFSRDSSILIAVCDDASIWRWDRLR
Procedure: (§1) FIG. 4A-FIG. 4F. Analysis of LX-2 cells. FIG. 4A: Western blot comparison of αSMA and PRC2 components/markers in Myofibroblasts and LX-2. FIG. 4B: Densitometry analysis of Myofibroblast vs. LX-2 western blot. FIG. 4C: Western blot analysis of αSMA and PRC2 components/markers in LX-2 cells treated with TGFβ for 24 or 48 hours. FIG. 4D: Densitometry analysis of TGFβ treated LX-2. FIG. 4E: Western blot analysis of EZH2 marker (H3K27me3) for EZH2 activity in myofibroblasts transitioned from Mesenchymal Stem Cells treated with GSK-126, a chemical inhibitor of EZH2. DMSO is a vehicle control.

EZH2 [2] = details: lymphoma and non-small cell lung cancer cell lines in vitro; cited from earlier work
[3] = system: cancer cell lines that have EZH2 activating mutations; details: cited from earlier work
[4] = system: cells that do not carry activating EZH2 mutations; details: high doses; cited from earlier work
LX-2 = assay: Western blot of EZH2 activity and PRC2 components in LX-2 cells incubated with TGFβ; format: cell-based; details: LX-2 cells treated with TGFβ for 24 or 48 hours; FIG. 4C, 4D
Procedure: as §1
In the fibrotic liver tissue, about 90% of myofibroblasts are derived from HSC (Liedtke, C., et al., Experimental liver fibrosis research: update on animal models, legal issues and translational aspects. Fibrogenesis Tissue Repair, 2013. 6(1): p. 19), and EZH2 may be an epigenetic regulator of HSC activation and transition into myofibroblast. It was shown that, like myofibroblasts (MF-10), the HSC cell line (LX-2) expresses EZH2 and the PRC components in vitro (FIG. 4A, FIG. 4B).

[5] = system: implanted liver organoids; assay: Effect of CCl4 treatment on liver organoids implanted on mouse liver; format: in vivo, nude mice; details: 4 μl/g CCl4 in olive oil (1:1), bi-weekly subcutaneous injections
Procedure: FIG. 3. The effect of CCl4 treatment on implanted liver organoids. Liver organoids were inserted on top of mouse livers via a small hole carved with a 8 mm biopsy punch and immobilized with fibrin glue. Some of the mice were treated with 4 μl/g CCl4, via bi-weekly subcutaneous injections. Liver organoids were harvested after 1 and 3 weeks and immune-stained for human hepatocytes (Hep-1) and proliferating cells (PCNA). Implant margins are drawn.
Yet, the in vitro culture conditions lack multiple factors present in vivo including components of the blood and immune cells, to mention a few. Accordingly, we implanted organoids on top the liver of nude mice by creating a small hole with a biopsy punch and immobilized them with fibrin glue. […] In parallel, we treated some on the implanted mice with […] of CCl4 in olive oil (1:1), via bi-weekly subcutaneous injections. […] Neovascularization was also observed within the organoids, probably due to CCl4-induced injury of the host liver.

CC[C@H](C)n1cc(C)c2c(C(=O)NCc3c(C)cc(C)[nH]c3=O)cc(-c3ccc(N4CCNCC4)nc3)cc21 [GSK-126]
Densitometry of EZH2 marker (H3K27me3): activity of EZH2 (EZH2 [1]; myofibroblasts transitioned from Mesenchymal Stem Cells, treated with GSK-126, FIG. 4F): effective decrease in activity of EZH2
H2K27me3 after incubation with GSK-126 (EZH2 [1]; tumor-associated fibroblasts (TAF), Western blot, FIG. 4E, 4F): complete loss of H2K27me3
Prevention of H3K27me3 (EZH2 [2]): effective at preventing H3K27me3
Cell death [3]: resulted in cell death
Lethality [4]: non-lethal, even at high doses

TGFβ
EZH2 activity and PRC machinery (Suz12, H3K27me3) (LX-2): induced EZH2 activity and PRC machinery

ClC(Cl)(Cl)Cl [CCl4, carbon tetrachloride]
Organoid histology after 1 week of CCl4 treatment ([5]; harvested after 1 week): lack of nucleated human hepatocytes within the organoids and early signs of fibrosis
Organoid histology after 3 weeks of CCl4 treatment ([5]; harvested after 3 weeks): higher number of proliferating stromal and endothelial cells
